Growth-suppressive activity data for six sequences are collected here from paper PMC5391289 (Nature chemical biology, 2017).

Ends that are not written are not given here.

For one assay, the system named is Bacillus subtilis 168. The assay can be described thus: Broth microdilution antimicrobial assay. The assay is classed as cell-based. As to conditions: Mueller-Hinton broth, 100 µM to 49 nM, 37 °C, 18 h, at least 2 replicates. Background: In broth dilution the organism is exposed to a series of concentrations in liquid medium.
For a further assay, the system named is E. coli MC4100. The assay can be described thus: Broth microdilution antimicrobial assay. Format: cell-based, Escherichia coli. To be noted: Mueller-Hinton broth, 100 µM to 49 nM, 37 °C, 18 h, at least 2 replicates.
In assay [1] the test system is Mycobacterium smegmatis NRRL B-14616. As to the kind of experiment: Broth microdilution antimicrobial assay. The assay is classed as cell-based. As to conditions: Mueller-Hinton broth, 100 µM to 49 nM, 37 °C, 24 h, at least 2 replicates.
Assay [2] relates to Enterococcus faecium U503 (VRE). The assay can be described thus: Broth microdilution antimicrobial assay. Format: cell-based. As to conditions: Mueller-Hinton broth, 100 µM to 49 nM, 37 °C, 18 h, at least 2 replicates.
Assay [3] has as its system Bacillus anthracis Sterne. The assay is classed as cell-based.
The test system of another assay is panel of bacteria. As to the kind of experiment: Broth microdilution antimicrobial assay. Format: cell-based. As to conditions: all organisms tested, 100 µM to 49 nM compound, 37 °C, no visible growth after 18 h (24 h M. smegmatis), at least 2 replicates.

For “GFIGWGNDIFGHYSGG (also: lariat or depsi (positions not given here)) [anantin B2]”, the growth-suppressive activity result with Bacillus subtilis 168 is reported as “moderately active”; in the assay on E. coli MC4100 it was “weak activity”.
As to “GFIGWGNDIFGHYSGGF (also: lariat or depsi (positions not given here)) [anantin B1]”, in the assay on E. coli MC4100, the growth-suppressive activity result is “weak activity”.
Turning to “GRPNWGFENDWSCVRVC (also: bicyclic or more (positions not given here)) [LP2006]”, the growth-suppressive activity entry (in assay [1]; with Bacillus subtilis 168; in assay [2]; in assay [3]) was “active” in each case.
“LAGQGSPDLLGGHSLL (also: lariat or depsi (positions not given here)) [lagmysin]”: the growth-suppressive activity result in the assay with panel of bacteria was “lacked growth suppressive activity towards all organisms tested”.
Take “LLGLAGNDRLVLSKN (also: lariat or depsi (positions not given here)) [Citrulassin A]”: in the assay on panel of bacteria, the growth-suppressive activity entry is on record as “lacked growth suppressive activity towards all organisms tested”.
On the same count and under the same terms, as for “SYHWGDYHDWHHGWYGWWDD (also: lariat or depsi (positions not given here)) [moomysin]”, the entry is “lacked growth suppressive activity towards all organisms tested”.
